Earlier results, collected in publication PMC7377239, “Cardiovascular Effects of Polychlorinated Biphenyls and Their Major Metabolites” (Environmental Health Perspectives, 2020).

Tested on: porcine pulmonary artery–derived EC
Set-up: method as in Hennig et al. 2002, 2005; Toborek et al. 1995
Details: ref Hennig et al. 2002, 2005, Toborek et al. 1995; cited from earlier work

For Clc1ccc(-c2cc(Cl)c(Cl)c(Cl)c2Cl)cc1 [PCB 114], the EC toxicity is listed as “potent inducers of EC toxicity”.
For Clc1ccc(-c2cc(Cl)c(Cl)cc2Cl)cc1Cl [PCB 118], the EC toxicity is given as “potent inducers of EC toxicity”.
For Clc1ccc(-c2ccc(Cl)c(Cl)c2)cc1Cl [PCB 77], the EC toxicity is given as “potent inducers of EC toxicity”.
